Measurements from ChEMBL document CHEMBL1125599, “Cholinergic activity of acetylenic imidazoles and related compounds” (J Med Chem, 1991).

Key:
Mus musculus [1] = assay: ED50 value determined as oxotremorine antagonism by measuring salivation in mice (in vivo); assay type: functional
Mus musculus [2] = assay: ED50 value as cholinergic agonist by measuring salivation in mice (in vivo); assay type: functional
[3] = target: Muscarinic acetylcholine receptor; assay: Binding affinity to muscarinic acetylcholine receptor was determined in presence of [3H]QNB radioligand (in vitro); assay type: protein assay
[4] = target: Muscarinic acetylcholine receptor (Rattus norvegicus) (UniProt P08482+P08483+P08485+P08911+P10980); assay: Ratio of Ki value for QNB to that of Ki value for Oxo-M.; assay type: protein assay
[5] = target: Muscarinic acetylcholine receptor; assay: Binding affinity to muscarinic acetylcholine receptor was determined in presence of [3H]OXO-M radioligand (in vitro); assay type: protein assay
Mus musculus [6] = assay: ED50 value as cholinergic agonism by measuring lacrimation in mice (in vivo); assay type: functional
Mus musculus [7] = assay: ED50 value determined as oxotremorine antagonism by measuring lacrimation in mice (in vivo); assay type: functional
Mus musculus [8] = assay: ED50 value as cholinergic agonist by measuring tremors in mice (in vivo); assay type: functional
Mus musculus [9] = assay: ED50 value determined as oxotremorine antagonism by measuring tremors in mice (in vivo); assay type: functional

Row | Ki [3] [nM] | Ki ratio [4] | Ki [5] [nM] | Structure (SMILES) | ED50 (Mus musculus [1]) [mg/kg] | ED50 (Mus musculus [2]) [mg/kg] | ED50 (Mus musculus [6]) [mg/kg] | ED50 (Mus musculus [7]) [mg/kg] | ED50 (Mus musculus [8]) [mg/kg] | ED50 (Mus musculus [9]) [mg/kg]
1 | 64 | 43 | 1.5 | COC(=O)N(C)C(C)C#CCN1CCCC1 (stereo unspecified) | > 100 | 14.2 | 20.9 | > 100 | 9.7 | > 100
2 | 16.8 | 3.2 | 5.22 | Cc1cncn1CC#CC(C)N1CCCC1=O (stereo unspecified) | 2.5 | > 100 | > 100 | 0.45 | > 100 | 25.4
3 | 1355 | 104 | 13 | COC(=O)N(C)C(C)C#CCn1ccnc1 (stereo unspecified) | > 100 | 8 | 8 | > 100 | 6.6 | > 100
4 | 568 | 3.6 | 156 | CCOC(=O)N(C)CC#CCn1cncc1C | 66 | > 100 | > 100 | 66 | 97 | 30

Continued, compound first:

Row | Structure (SMILES) | Ki [3] [nM] | Ki ratio [4] | Ki [5] [nM] | ED50 (Mus musculus [1]) [mg/kg] | ED50 (Mus musculus [2]) [mg/kg] | ED50 (Mus musculus [6]) [mg/kg] | ED50 (Mus musculus [7]) [mg/kg] | ED50 (Mus musculus [8]) [mg/kg] | ED50 (Mus musculus [9]) [mg/kg]
5 | CN(C)C(=O)N(C)CC#CCN1CCCC1 | 140 | 39 | 3.6 | > 10 | > 10 | > 10 | 6.6 | 1.2 | > 10
6 | CC(C#CCN(C)C)N1CCCC1=O (stereo unspecified) | 1702 | 65 | 26.4 | > 100 | 6.6 | 6.6 | > 100 | 100 | > 100
7 | Cc1cncn1CC#CCN1CCCC1=O | 64 | 20 | 3.2 | > 100 | > 100 | > 100 | 0.8 | 2.5 | > 100
8 | O=C1OCCN1CC#CCN1CCCC1 | 1362 | 153 | 8.9 | > 10 | 5.4 | > 10 | > 10 | 3.7 | > 10
9 | CC1CCC(=O)N1CC#CCN1CCCC1 (stereo unspecified) | 14 | 9.4 | 1.5 | 2 | > 30 | > 30 | 0.55 | > 30 | 1.7
